Data set [1] is described as follows: logP by HPLC on reversed-phase column (EEC Directive 79/831 Annex V.A8). It is filed as physicochemical. Conditions: HPLC on reversed-phase column (C 18), 40° C., 0.1% aqueous formic acid and acetonitrile, linear gradient 10% to 90% acetonitrile. How it is done:
In table 1, the logP values were determined in accordance with EEC Directive 79/831 Annex V.A8 by HPLC (High Performance Liquid Chromatography) on a reversed-phase column (C 18), using the method described below: Temperature: 40° C.; Mobile phases: 0.1% aqueous formic acid and acetonitrile; linear gradient from 10% acetonitrile to 90% acetonitrile. Calibration was carried out using unbranched alkan-2-ones (comprising 3 to 16 carbon atoms) with known logP values (determination of the logP values by the retention times using linear interpolation between two successive alkanones). lambda-max-values were determined using UV-spectra from 200 nm to 400 nm and the peak values of the chromatographic signals.

For data set [2], the system named is Sphaerotheca fuliginea. The data set is described as follows: In vivo preventive test on Sphaerotheca fuliginea (cucumber). Conditions: 500 ppm of active ingredient, evaluated 7 days after inoculation.
In data set [3] the test system is Alternaria solani. The data set is described as follows: In vivo preventive test on Alternaria solani (tomato). Conditions: 500 ppm of active ingredient, evaluated 7 days after inoculation. As to the method: The plants remain for one day in an incubation cabinet at approximately 22° C. and a relative atmospheric humidity of 100%. Then the plants are placed in an incubation cabinet at approximately 20° C. and a relative atmospheric humidity of 96%.

The subject of data set [4] is Pyrenophora teres. In words: In vivo preventive test on Pyrenophora teres (barley). Conditions: 500 ppm of active ingredient, evaluated 7-9 days after inoculation. As to the method:
The plants remain for 48 hours in an incubation cabinet at 22° C. and a relative atmospheric humidity of 100%.

One may read the logP as a log measure of how a compound divides between an organic and an aqueous phase. The low end stands for a more hydrophilic compound, the high end for a more lipophilic compound.

The structures appear in SMILES notation.

In the case of `Cn1nc(C(F)F)c(C(=O)N2CCCC2c2ccc(C(C)(C)C)cc2)c1F` (stereo not shown) [Example 13], in data set [1], the logP is reported as 3.74. For the same molecule, the Efficacy in data set [2] came out at 93%; in data set [3], 100%; in data set [4] it was 100%.
The molecule `Cn1nc(C(F)F)c(C(=O)N2CCCC2CS(=O)(=O)c2ccccc2)c1Cl` (racemic) [Example 88] gave a logP in data set [1] of 2.20.
Turning to `Cn1nc(C(F)F)c(C(=S)N2CCCC2Cc2cccc(Cl)c2Cl)c1F` (racemic) [Example 70], the log partition coefficient (logP) in data set [1] is given as 4.46. For the same molecule, the Efficacy in data set [3] stood at 95%; in data set [4], 100%.
In the case of `Cn1nc(C(F)F)c(C(=O)N2CCCC2c2ccc(C(C)(C)C)cc2)c1Cl` (stereo not shown) [Example 12], the log partition coefficient (logP) in data set [1] is 3.90. In addition, the Efficacy in data set [3] came to 90%; in data set [4], 95%.
Turning to `Cn1nc(C(F)F)c(C(=O)N2CCCC2c2cccc3ccccc23)c1F` (stereo not shown) [Example 41], in data set [1], the log partition coefficient (logP) is on record as 3.08. The Efficacy is recorded as 75% in data set [2] and 90% in data set [4].
With `COc1ccccc1C1CCCN1C(=O)c1c(C(F)F)nn(C)c1F` (stereo not shown) [Example 3], the log partition coefficient (logP) in data set [1] is on record as 2.59. Moreover, the Efficacy in data set [3] is listed as 80%.
For the molecule `CC(c1cc(Cl)ccc1Cl)C1CCCN1C(=O)c1c(C(F)F)nn(C)c1Cl` (mixture of isomers) [Example 74], the log partition coefficient (logP) in data set [1] was found to be 3.96.
In data set [1], `Cn1nc(C(F)F)c(C(=O)N2CCCC2c2ccccc2Br)c1Cl` (stereo not shown) [Example 31] came in with a logP of 3.09. The Efficacy in data set [3] is on record as 90%; in data set [4], 95%.
`Cn1nc(C(F)F)c(C(=O)N2CCCC2Cc2cccc3ccccc23)c1F` (racemic) [Example 83] registered a log partition coefficient (logP) in data set [1] of 3.52. Besides, the Efficacy in data set [3] and in data set [4] was 100% throughout.
For the molecule `Cn1nc(C(F)F)c(C(=O)N2CCCC2c2nc3ccccc3s2)c1F` (stereo not shown) [Example 51], in data set [1], the lipophilicity (logP) is given as 2.49. In data set [4], this molecule yielded an Efficacy of 95%.
`Cn1nc(C(F)F)c(C(=O)N2CCCC2c2ccc(-c3ccccc3)cc2)c1Cl` (stereo not shown) [Example 30] returned a logP in data set [1] of 3.65. In addition, the Efficacy in data set [4] was 100%.
In the case of `Cn1nc(C(F)F)c(C(=O)N2CCCC2c2cc3ccccc3s2)c1F` (stereo not shown) [Example 48], in data set [1], the lipophilicity (logP) is given as 3.11. Moreover, the Efficacy was 93% in data set [2] and 100% in data set [4].
Consider `CC(c1ccc(Cl)cc1Cl)C1CCCN1C(=O)c1c(C(F)F)nn(C)c1F` (mixture of isomers) [Example 71], for which the logP in data set [1] was 3.87.
`Cn1nc(C(F)F)c(C(=O)N2CCCC2CS(=O)(=O)c2ccccc2)c1F` (racemic) [Example 87]: in data set [1], the lipophilicity (logP) amounted to 2.13.
For `CC(c1ccccc1Cl)C1CCCN1C(=O)c1c(C(F)F)nn(C)c1Cl` (mixture of isomers) [Example 63], the logP in data set [1] was 3.46.
With `Cn1nc(C(F)F)c(C(=O)N2CCCC2c2cccs2)c1F` (stereo not shown) [Example 45], the lipophilicity (logP) in data set [1] came to 2.39. Further, the Efficacy worked out at 90% in data set [3] and 95% in data set [4].
As to `Cn1nc(C(F)F)c(C(=S)N2CCCC2c2cccc(C(F)(F)F)c2)c1Cl` (stereo not shown) [Example 19], the log partition coefficient (logP) in data set [1] worked out at 3.79. The molecule also showed an Efficacy in data set [4] of 100%.
Take `Cn1nc(C(F)F)c(C(=O)N2CCCC2CCc2ccccc2)c1F` (racemic) [Example 84]: the logP in data set [1] was 3.02. Moreover, the Efficacy in data set [3] came to 90%; in data set [4], 100%.
On to `Cn1nc(C(F)F)c(C(=O)N2CCC[C@H]2COc2ccc(Cl)cc2)c1F` [Example 85], for which the logP in data set [1] is 3.29.
For `Cn1nc(C(F)F)c(C(=O)N2CCCC2c2cccc(Br)c2)c1Cl` (stereo not shown) [Example 33], the log partition coefficient (logP) in data set [1] was 3.06. Further, the Efficacy in data set [3] is given as 95%; in data set [4], 100%.
`CC(c1c(Cl)cccc1Cl)C1CCCN1C(=O)c1c(C(F)F)nn(C)c1F` (mixture of isomers) [Example 78]: the logP in data set [1] amounted to 3.52.
The molecule `Cn1nc(C(F)F)c(C(=O)N2CCCC2c2ccccc2C(F)(F)F)c1Cl` (stereo not shown) [Example 14] gave a lipophilicity (logP) in data set [1] of 3.19. Besides, the Efficacy amounted to 95% in data set [3] and 90% in data set [4].
`Cn1nc(C(F)F)c(C(=O)N2CCCC2c2cc(F)cc(F)c2)c1Cl` (stereo not shown) [Example 9]: the logP in data set [1] turned out to be 2.82. The Efficacy in data set [4] is reported as 90%.
Take `Cn1nc(C(F)F)c(C(=O)N2CCCC2Cc2c(Cl)cccc2Cl)c1Cl` (racemic) [Example 75]: in data set [1], the log partition coefficient (logP) is 3.50. The Efficacy in data set [3] stood at 90%; in data set [4], 100%.
`Cn1nc(C(F)F)c(C(=O)N2CCCC2c2cc3ccccc3s2)c1Cl` (stereo not shown) [Example 49] registered a log partition coefficient (logP) in data set [1] of 3.25. In addition, the Efficacy in data set [4] stood at 95%.
Consider `Cn1nc(C(F)F)c(C(=O)N2CCCC2c2cccnc2)c1F` (stereo not shown) [Example 44], for which, in data set [1], the logP was found to be 0.48.
`Cn1nc(C(F)F)c(C(=O)N2CCCC2c2ccc(C(F)(F)F)cc2)c1Cl` (stereo not shown) [Example 20] registered a logP in data set [1] of 3.25. Further, the Efficacy in data set [3] and in data set [4] was 70% in each case.
In data set [1], `Cn1nc(C(F)F)c(C(=O)N2CCCC2c2ccc(Cl)cc2)c1F` (stereo not shown) [Example 8] registered a log partition coefficient (logP) of 2.90. Further, the Efficacy in data set [3] and in data set [4] was 100% each time.
As for `Cn1nc(C(F)F)c(C(=O)N2CCCC2c2ccco2)c1F` (stereo not shown) [Example 42], the logP in data set [1] stood at 2.13.
In data set [1], `Cn1nc(C(F)F)c(C(=O)N2CCCC2c2cc(C(F)(F)F)cc(C(F)(F)F)c2)c1Cl` (stereo not shown) [Example 40] yielded a logP of 3.79. In addition, the Efficacy in data set [3] and in data set [4] was 95% in each case.
In data set [1], `Cn1nc(C(F)F)c(C(=O)N2CCC[C@H]2COc2c(Cl)cc(Cl)cc2Cl)c1Cl` [Example 81] displayed a log partition coefficient (logP) of 4.36. Also, the Efficacy in data set [2] is reported as 100%.
Regarding `Cn1nc(C(F)F)c(C(=O)N2CCCC2c2cnc3ccccc3c2)c1F` (stereo not shown) [Example 46], the logP in data set [1] is recorded as 1.50.
On to `Cn1nc(C(F)F)c(C(=O)N2CCCC2c2ccccc2C(F)(F)F)c1F` (stereo not shown) [Example 15], for which the logP in data set [1] is 3.09. Besides, the Efficacy amounted to 95% in data set [3] and 100% in data set [4].
`Cn1nc(C(F)F)c(C(=O)N2CCCC2c2ccccc2Cl)c1Cl` (stereo not shown) [Example 5] gave a logP in data set [1] of 3.04. In addition, the Efficacy in data set [3] and in data set [4] was 80% in each case.
As for `Cn1nc(C(F)F)c(C(=O)N2CCCC2Cc2ccc(C(C)(C)C)cc2)c1F` (racemic) [Example 68], the lipophilicity (logP) in data set [1] is recorded as 4.24. Besides, the Efficacy was 94% in data set [3] and 100% in data set [4].
Molecule `Cn1nc(C(F)F)c(C(=O)N2CCCC2c2ccc3c(c2)OCO3)c1F` (stereo not shown) [Example 11] came in with a logP in data set [1] of 2.35. The Efficacy in data set [4] is listed as 70%.
In data set [1], `COc1ccc(C2CCCN2C(=O)c2c(C(F)F)nn(C)c2F)cc1` (stereo not shown) [Example 4] registered a logP of 2.42. This molecule displayed an Efficacy in data set [3] of 80%.
Turning to `Cn1nc(C(F)F)c(C(=O)N2CCCC2c2ccc(Cl)cc2)c1Cl` (stereo not shown) [Example 7], the logP in data set [1] is on record as 3.04. Moreover, the Efficacy in data set [3] came to 95%; in data set [4], 70%.
In data set [1], `CC(c1c(Cl)cccc1Cl)C1CCCN1C(=O)c1c(C(F)F)nn(C)c1Cl` (mixture of isomers) [Example 79] had a logP of 3.81.
Same read-out and setting: then `CC(c1cc(Cl)ccc1Cl)C1CCCN1C(=O)c1c(C(F)F)nn(C)c1F` (mixture of isomers) [Example 73], with 3.76.
In data set [1], `Cn1nc(C(F)F)c(C(=O)N2CCCC2c2ccccn2)c1F` (stereo not shown) [Example 43] came in with a logP of 0.92.
On to `Cn1nc(C(F)F)c(C(=O)N2CCCC2c2ccc(Cl)cc2Cl)c1Cl` (stereo not shown) [Example 23], for which the logP in data set [1] is 3.57. Besides, the Efficacy in data set [3] was 95%; in data set [4] it was 100%.
In data set [1], `Cc1ccccc1C1CCCN1C(=O)c1c(C(F)F)nn(C)c1Cl` (stereo not shown) [Example 1] yielded a lipophilicity (logP) of 2.90. The Efficacy in data set [3] and in data set [4] was 80% throughout.
Consider `Cn1nc(C(F)F)c(C(=O)N2CCCC2c2nc3ccccc3s2)c1Cl` (stereo not shown) [Example 50], for which, in data set [1], the lipophilicity (logP) worked out at 2.61.
Still for that read-out and setting: then `CC(c1ccccc1Cl)C1CCCN1C(=O)c1c(C(F)F)nn(C)c1F` (mixture of isomers) [Example 62], with 3.29.
In data set [1], `Cn1nc(C(F)F)c(C(=O)N2CCCC2c2ccc(-c3ccccc3)cc2)c1F` (stereo not shown) [Example 29] displayed a log partition coefficient (logP) of 3.50. For the same molecule, the figures for the Efficacy in data set [3] and in data set [4] were 95% and 100%, respectively.
`Cn1nc(C(F)F)c(C(=O)N2CCCC2c2ccc(Cl)c(Cl)c2)c1Cl` (stereo not shown) [Example 25] came in with a logP in data set [1] of 3.37. Also, the Efficacy in data set [3] and in data set [4] was 95% in each case.
`Cn1nc(C(F)F)c(C(=O)N2CCC[C@H]2COc2ccc(Cl)cc2)c1Cl` [Example 86] showed a lipophilicity (logP) in data set [1] of 3.44.
Same read-out and setting: then `CC(c1ccc(Cl)cc1Cl)C1CCCN1C(=O)c1c(C(F)F)nn(C)c1Cl` (mixture of isomers) [Example 72], with 4.06.
`Cn1nc(C(F)F)c(C(=O)N2CCCC2c2ccc3ncccc3c2)c1F` (stereo not shown) [Example 47] displayed a logP in data set [1] of 1.14.

These data come from patent US8614242B2, “1-(heterocyclic carbonyl)-2-substituted pyrrolidines” (Bayer Intellectual Property GmbH, priority 2010, dated 2013).
